# Several values for one entry are separate records, joined by “and”; a condition that tells them apart may be missing. Equal entries are not always repeated.
# Tested on: BDF1 mice, Adenocarcinoma 755 s.c., tumor weight T/C
# Experiment: NCI In Vivo Anticancer Drug Screen. Data for tumor model Adenocarcinoma 755 (subcutaneous) in B6D2F1 (BDF1) mice
# Conditions: endpoint: mean tumor weight, higher = larger tumour
# In short: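 Compound activity was tested in mice carrying transplanted tumors. Survival or tumor size was measured, and each value is the treated-group measurement divided by that of the vehicle-treated control group (T/C).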
# [1] = dose: 25.0 mg/kg/injection, schedule: Q01DX011 (ip), vehicle: methylcellulose (MC)
smiles,measurement,setting,value
CS(=O)(=O)OCCCCOS(C)(=O)=O,T/C,"dose: 3.75 mg/kg/injection, schedule: Q03DX004 (ip), vehicle: saline",111 % of control
same,T/C,"dose: 5.0 mg/kg/injection, schedule: Q#A X022 (ip), vehicle: saline",54 % of control
same,T/C,"dose: 6.63 mg/kg/injection, schedule: Q01DX011 (ip), vehicle: carboxymethylcellulose (CMC)",95 % of control
same,T/C,"dose: 6.66 mg/kg/injection, schedule: Q01DX011 (ip), vehicle: carboxymethylcellulose (CMC)",99 % of control
same,T/C,"dose: 9.36 mg/kg/injection, schedule: Q01DX011 (ip), vehicle: carboxymethylcellulose (CMC)",66 % of control
same,T/C,"dose: 10.0 mg/kg/injection, schedule: Q01DX006 (iv), vehicle: saline",117 % of control
same,T/C,"dose: 10.0 mg/kg/injection, schedule: Q01DX011 (im), vehicle: saline",36 % of control
same,T/C,"dose: 10.0 mg/kg/injection, schedule: Q01DX011 (ip), vehicle: carboxymethylcellulose (CMC)",62 % of control
same,T/C,"dose: 10.0 mg/kg/injection, schedule: Q01DX011 (ip), vehicle: saline",71 % of control
same,T/C,"dose: 10.0 mg/kg/injection, schedule: Q01DX011 (oral), vehicle: saline",81 % of control
same,T/C,"dose: 10.0 mg/kg/injection, schedule: Q01DX011 (sc), vehicle: saline",35 % of control
same,T/C,"dose: 10.0 mg/kg/injection, schedule: Q#A X022 (ip), vehicle: saline",80 % of control
same,T/C,"dose: 12.5 mg/kg/injection, schedule: Q01DX011 (ip), vehicle: methylcellulose (MC)",119 % of control
same,T/C,"dose: 13.25 mg/kg/injection, schedule: Q01DX011 (ip), vehicle: carboxymethylcellulose (CMC)",101 % of control
same,T/C,"dose: 15.0 mg/kg/injection, schedule: Q03DX004 (ip), vehicle: saline",87 % of control
same,T/C,"dose: 16.75 mg/kg/injection, schedule: Q01DX011 (ip), vehicle: carboxymethylcellulose (CMC)",68 % of control
same,T/C,"dose: 17.5 mg/kg/injection, schedule: Q01DX011 (ip), vehicle: carboxymethylcellulose (CMC)",106 % of control
same,T/C,"dose: 17.87 mg/kg/injection, schedule: Q01DX011 (ip), vehicle: carboxymethylcellulose (CMC)",77 % of control
same,T/C,"dose: 18.73 mg/kg/injection, schedule: Q01DX011 (ip), vehicle: carboxymethylcellulose (CMC)",76 % of control
same,T/C,"dose: 20.0 mg/kg/injection, schedule: Q01DX006 (iv), vehicle: saline",100 % of control
same,T/C,"dose: 20.0 mg/kg/injection, schedule: Q01DX011 (im), vehicle: saline",76 % of control
same,T/C,"dose: 20.0 mg/kg/injection, schedule: Q01DX011 (ip), vehicle: carboxymethylcellulose (CMC)",76 % of control
same,T/C,"dose: 20.0 mg/kg/injection, schedule: Q01DX011 (oral), vehicle: saline",49 % of control
same,T/C,"dose: 20.0 mg/kg/injection, schedule: Q01DX011 (sc), vehicle: saline",104 % of control
same,T/C,"dose: 20.0 mg/kg/injection, schedule: Q#A X022 (ip), vehicle: saline",39 % of control
same,T/C,"dose: 21.2 mg/kg/injection, schedule: Q01DX011 (ip), vehicle: carboxymethylcellulose (CMC)",91 % of control
same,T/C,"dose: 21.32 mg/kg/injection, schedule: Q01DX011 (ip), vehicle: carboxymethylcellulose (CMC)",81 % of control
same,T/C,[1],77 % of control
same,T/C,"dose: 26.5 mg/kg/injection, schedule: Q01DX011 (ip), vehicle: carboxymethylcellulose (CMC)",26 % of control and 50 % of control
same,T/C,"dose: 26.65 mg/kg/injection, schedule: Q01DX011 (ip), vehicle: carboxymethylcellulose (CMC)",53 % of control and 63 % of control
same,T/C,"dose: 33.5 mg/kg/injection, schedule: Q01DX011 (ip), vehicle: carboxymethylcellulose (CMC)",83 % of control
same,T/C,"dose: 35.0 mg/kg/injection, schedule: Q01DX011 (ip), vehicle: carboxymethylcellulose (CMC)",98 % of control
same,T/C,"dose: 35.33 mg/kg/injection, schedule: Q01DX011 (ip), vehicle: carboxymethylcellulose (CMC)",34 % of control
same,T/C,"dose: 35.5 mg/kg/injection, schedule: Q01DX011 (ip), vehicle: carboxymethylcellulose (CMC)",38 % of control
same,T/C,"dose: 35.75 mg/kg/injection, schedule: Q01DX011 (ip), vehicle: carboxymethylcellulose (CMC)",81 % of control
same,T/C,"dose: 37.45 mg/kg/injection, schedule: Q01DX011 (ip), vehicle: carboxymethylcellulose (CMC)",73 % of control
same,T/C,"dose: 40.0 mg/kg/injection, schedule: Q01DX006 (iv), vehicle: saline",84 % of control
same,T/C,"dose: 40.0 mg/kg/injection, schedule: Q01DX011 (im), vehicle: saline",17 % of control
same,T/C,"dose: 40.0 mg/kg/injection, schedule: Q01DX011 (ip), vehicle: carboxymethylcellulose (CMC)",10 % of control
same,T/C,"dose: 40.0 mg/kg/injection, schedule: Q01DX011 (oral), vehicle: saline",30 % of control and 49 % of control
same,T/C,"dose: 40.0 mg/kg/injection, schedule: Q01DX011 (sc), vehicle: saline",41 % of control and 45 % of control
same,T/C,"dose: 40.0 mg/kg/injection, schedule: Q#A X022 (ip), vehicle: saline",17 % of control
same,T/C,"dose: 50.0 mg/kg/injection, schedule: Q01DX011 (ip), vehicle: methylcellulose (MC)",30 % of control
same,T/C,"dose: 53.0 mg/kg/injection, schedule: Q01DX011 (ip), vehicle: carboxymethylcellulose (CMC)",3 % of control
same,T/C,"dose: 53.3 mg/kg/injection, schedule: Q01DX011 (ip), vehicle: carboxymethylcellulose (CMC)",1 % of control
same,T/C,"dose: 57.96 mg/kg/injection, schedule: Q01DX011 (ip), vehicle: carboxymethylcellulose (CMC)",113 % of control
same,T/C,"dose: 60.0 mg/kg/injection, schedule: Q03DX004 (ip), vehicle: saline",67 % of control and 71 % of control
same,T/C,"dose: 67.0 mg/kg/injection, schedule: Q01DX011 (ip), vehicle: carboxymethylcellulose (CMC)",37 % of control
same,T/C,"dose: 70.0 mg/kg/injection, schedule: Q01DX001 (ip), vehicle: saline",90 % of control
same,T/C,"dose: 70.0 mg/kg/injection, schedule: Q01DX011 (ip), vehicle: carboxymethylcellulose (CMC)",49 % of control
same,T/C,"dose: 70.0 mg/kg/injection, schedule: Q07DX002 (ip), vehicle: saline",99 % of control
same,T/C,"dose: 71.5 mg/kg/injection, schedule: Q01DX011 (ip), vehicle: carboxymethylcellulose (CMC)",58 % of control
same,T/C,"dose: 72.45 mg/kg/injection, schedule: Q01DX011 (ip), vehicle: carboxymethylcellulose (CMC)",29 % of control
same,T/C,"dose: 80.0 mg/kg/injection, schedule: Q01DX006 (iv), vehicle: saline",88 % of control
same,T/C,"dose: 80.0 mg/kg/injection, schedule: Q01DX011 (oral), vehicle: saline",17 % of control and 27 % of control
same,T/C,"dose: 96.6 mg/kg/injection, schedule: Q01DX011 (ip), vehicle: carboxymethylcellulose (CMC)",19 % of control
same,T/C,"dose: 120.0 mg/kg/injection, schedule: Q03DX004 (ip), vehicle: saline",39 % of control and 62 % of control
same,T/C,"dose: 140.0 mg/kg/injection, schedule: Q01DX001 (ip), vehicle: saline",98 % of control and 111 % of control
same,T/C,"dose: 140.0 mg/kg/injection, schedule: Q07DX002 (ip), vehicle: saline",91 % of control
same,T/C,"dose: 160.0 mg/kg/injection, schedule: Q01DX011 (ip), vehicle: saline",14 % of control
same,T/C,"dose: 160.0 mg/kg/injection, schedule: Q01DX011 (oral), vehicle: saline",41 % of control
same,T/C,"dose: 240.0 mg/kg/injection, schedule: Q03DX004 (ip), vehicle: saline",24 % of control and 38 % of control
same,T/C,"dose: 280.0 mg/kg/injection, schedule: Q07DX002 (ip), vehicle: saline",77 % of control
same,T/C,"dose: 320.0 mg/kg/injection, schedule: Q01DX011 (oral), vehicle: saline",9 % of control
same,T/C,"dose: 1120.0 mg/kg/injection, schedule: Q01DX001 (ip), vehicle: saline",58 % of control
CCN(CC)C(=O)CSc1ncnc2nc[nH]c12,T/C,"dose: 6.0 mg/kg/injection, schedule: Q01DX011 (ip), vehicle: methylcellulose (MC)",91 % of control
same,T/C,[1],43 % of control
same,T/C,"dose: 31.25 mg/kg/injection, schedule: Q01DX011 (ip), vehicle: methylcellulose (MC)",6 % of control
same,T/C,"dose: 62.5 mg/kg/injection, schedule: Q01DX011 (ip), vehicle: methylcellulose (MC)",4 % of control

# Reference: PubChem BioAssay AID180 (DTP/NCI, 2004)
